Assay results taken from US10105343B2, “Cannabis based compositions and methods of treating hypertension” (KUBBY PATENT AND LICENSES, LIMITED LIABILITY COMPANY, priority 2010, dated 2018).

Tested on: hypertension
Assay: Inventor's own case: control of hypertension in adrenal cancer (anecdotal patient report)
Assay type: in vivo, human
Settings: single patient (the inventor)
Source text: In 1999, this inventor's doctors told them that after completing extensive medical tests at the University of Southern California's School of Medicine their prognosis was poor. According to Dr. Vincent DeQuattro, a USC professor and world authority on adrenal cancer, their blood contained deadly levels of adrenaline, more than enough to kill anyone else.
Nearly everyone else who has ever had the malignant form of the inventor's disease has died within a few years. The inventor credits their survival, now 35 years since their diagnosis, to medical marijuana, something DeQuattro considered a “medical miracle.” Dr. DeQuattro has written that the inventor could suffer a heart attack or stroke if deprived of marijuana and that no other form of therapy is available.
Despite the seriousness and dramatic dangers of their disease, a person was arrested and jailed for using the only medicine that worked for them. During their first few days of incarceration, they experienced excruciating pain, a vicious high blood-pressure crisis, passed blood in their urine and over a period of 60 days, and lost 33 pounds.
That's when […] started to experiment with lozenges to see if […] could create a natural cannabis based lozenge that would control hypertension, without undesirable side effects.
This led the Inventor to the development that is taught in this invention.

## CCCCCc1cc(O)c2c(c1)OC(C)(C)[C@@H]1CCC(C)=C[C@@H]21 [Marinol, tetrahydrocannabinol]
  undesirable side effects: constant nausea
Adrenal cancer with deadly adrenaline levels
  controlling hypertension: extremely effective
During incarceration
  substitute for whole cannabis in treating the inventor's otherwise fatal disease: acceptable, if not ideal, substitute
